# According to patent US20230136600A1, “Method and device for screening antigen epitope polypeptide” (priority 2020, published 2023):
# What was measured:
# [1] = tested on: Balb/c mice; test: Detection of peptide immunogenicity by polypeptide chip: vaccine peptide-specific signal sequencing (timing-sequence response, Fisher exact test); assay type: in vivo; conditions: Embodiment IV; 7-peptide mixed solution with adjuvant: Mix 1 AddaVax, 2 Imject Alumn, 3 Alhydrogel, 4 Adju-Phos, 5 MA103A, 6 MA103B
# [2] = tested on: novel coronavirus (live coronavirus), vero cells; test: In-vitro live virus neutralization experiment with serum of immunized mice (CPE method); assay type: in vivo, SARS-CoV-2; conditions: Embodiment I: single peptide 100 μg + MF59 at Day 0, 14, 28, Balb/c mice, serum Day 35
# [3] = tested on: Balb/c mice; test: Polypeptide chip-based vaccine immunogenicity scoring system; assay type: in vivo; design: key to A2: whether the 95 percentile of the last sampling is increased compared with the end point: Y = rise; N = no rise
# [4] = Embodiment III, polypeptide-KLH
# [5] = Embodiment III, polypeptide-KLH, Mix1-10
# [6] = Embodiment III, polypeptide-KLH, total score = 5
# [7] = Embodiment III, polypeptide-KLH, value of the whole mix
# [8] = adjuvant AddaVax, 7 peptides co-immunized in mice
# [9] = adjuvant Adju-Phos, 7 peptides co-immunized in mice
# [10] = adjuvant Alhydrogel, 7 peptides co-immunized in mice
# [11] = adjuvant Imjet Alumn, 7 peptides co-immunized in mice
# [12] = adjuvant MA103A, 7 peptides co-immunized in mice
# [13] = adjuvant MA103B, 7 peptides co-immunized in mice
substance,measurement,setting,value
4 (ALDPLSETKCT; SARS-CoV-2) [compound 4],#A timing-sequence response peptide fragment set,[1],203
same,#B vaccine specificity peptide fragment set,[1],1244
same,Intersection of A and B,[1],0
same,Mode I,[1],23
same,Mode II,[1],183
5 (GRLQSLQTY; SARS-CoV-2) [compound 5],#A timing-sequence response peptide fragment set,[1],260
same,#B vaccine specificity peptide fragment set,[1],1244
same,Intersection of A and B,[1],3
same,Mode I,[1],102
same,Mode II,[1],171
KLDDKDPNFK (SARS-CoV-2) [SEQ ID NO:20],Neutralizing antibody positive rate (%),[2],20%
same,B1: D 0-D 14 95 percentile rise in the number of mice,[3]; [4],3
same,B2: D 0-D 21 95 percentile rise in the number of mice,[3]; [4],3
same,B3: D 14-D 21 95 percentile rise in the number of mice,[3]; [4],1
same,B4: D 21-D 28 95 percentile rise in the number of mice,[3]; [4],1
same,A1: difference between a highest median and a D 0 median (95 percentile),[3]; [5],0.08
same,A2: whether the 95 percentile of the last sampling is increased compared with the end point,[3]; [5],Y
same,Total single peptide,"[3]; Embodiment III, polypeptide-KLH, A*3 + B*2 + C*1",14.8
same,A: 95 percentile grouping number score,[3]; [6],3.5
same,B: Mouse performance score,[3]; [6],1.9
same,C1: #A timing-sequence response peptide fragment set,[3]; [7],511
same,C2: #B vaccine specificity peptide fragment set,[3]; [7],364
same,C3: Intersection of A and B,[3]; [7],1
same,C4: Percentage of the intersection in set B,[3]; [7],0.275
same,C: Timing-sequence response and specificity score,[3]; [7],0.5
same,1) 95 percentile grouping number A,[3]; [8],0
same,1) 95 percentile grouping number A1,[3]; [8],0
same,2) Mouse performance B,[3]; [8],1.5
same,2) Mouse performance B1,[3]; [8],1
same,2) Mouse performance B2,[3]; [8],0
same,2) Mouse performance B3,[3]; [8],3
same,3) Timing-sequence response and specificity C,[3]; [8],0
same,3) Timing-sequence response and specificity C1,[3]; [8],237
same,3) Timing-sequence response and specificity C2,[3]; [8],1244
same,3) Timing-sequence response and specificity C3,[3]; [8],0
same,3) Timing-sequence response and specificity C4,[3]; [8],0.000
same,Total single peptide,[3]; [8],3
same,1) 95 percentile grouping number A,[3]; [9],1.5
same,1) 95 percentile grouping number A1,[3]; [9],0.025
same,2) Mouse performance B,[3]; [9],1.4
same,2) Mouse performance B1,[3]; [9],2
same,2) Mouse performance B2,[3]; [9],2
same,2) Mouse performance B3,[3]; [9],1
same,3) Timing-sequence response and specificity C,[3]; [9],0
same,3) Timing-sequence response and specificity C1,[3]; [9],203
same,3) Timing-sequence response and specificity C2,[3]; [9],1244
same,3) Timing-sequence response and specificity C3,[3]; [9],0
same,3) Timing-sequence response and specificity C4,[3]; [9],0.000
same,Total single peptide,[3]; [9],7.3
same,1) 95 percentile grouping number A,[3]; [10],0
same,1) 95 percentile grouping number A1,[3]; [10],0
same,2) Mouse performance B,[3]; [10],1.6
same,2) Mouse performance B1,[3]; [10],2
same,2) Mouse performance B2,[3]; [10],1
same,2) Mouse performance B3,[3]; [10],2
same,3) Timing-sequence response and specificity C,[3]; [10],1
same,3) Timing-sequence response and specificity C1,[3]; [10],123
same,3) Timing-sequence response and specificity C2,[3]; [10],1244
same,3) Timing-sequence response and specificity C3,[3]; [10],2
same,3) Timing-sequence response and specificity C4,[3]; [10],0.161
same,Total single peptide,[3]; [10],3.7
same,1) 95 percentile grouping number A,[3]; [11],0
same,1) 95 percentile grouping number A1,[3]; [11],0
same,2) Mouse performance B,[3]; [11],1.7
same,2) Mouse performance B1,[3]; [11],1
same,2) Mouse performance B2,[3]; [11],1
same,2) Mouse performance B3,[3]; [11],3
same,3) Timing-sequence response and specificity C,[3]; [11],1
same,3) Timing-sequence response and specificity C1,[3]; [11],100
same,3) Timing-sequence response and specificity C2,[3]; [11],1244
same,3) Timing-sequence response and specificity C3,[3]; [11],3
same,3) Timing-sequence response and specificity C4,[3]; [11],0.241
same,Total single peptide,[3]; [11],3.9
same,1) 95 percentile grouping number A,[3]; [12],1.5
same,1) 95 percentile grouping number A1,[3]; [12],0.015
same,2) Mouse performance B,[3]; [12],2.4
same,2) Mouse performance B1,[3]; [12],2
same,2) Mouse performance B2,[3]; [12],3
same,2) Mouse performance B3,[3]; [12],3
same,3) Timing-sequence response and specificity C,[3]; [12],1
same,3) Timing-sequence response and specificity C1,[3]; [12],260
same,3) Timing-sequence response and specificity C2,[3]; [12],1244
same,3) Timing-sequence response and specificity C3,[3]; [12],3
same,3) Timing-sequence response and specificity C4,[3]; [12],0.241
same,Total single peptide,[3]; [12],9.8
same,1) 95 percentile grouping number A,[3]; [13],1
same,1) 95 percentile grouping number A1,[3]; [13],0.02
same,2) Mouse performance B,[3]; [13],2.1
same,2) Mouse performance B1,[3]; [13],3
same,2) Mouse performance B2,[3]; [13],2
same,2) Mouse performance B3,[3]; [13],2
same,3) Timing-sequence response and specificity C,[3]; [13],0
same,3) Timing-sequence response and specificity C1,[3]; [13],153
same,3) Timing-sequence response and specificity C2,[3]; [13],1244
same,3) Timing-sequence response and specificity C3,[3]; [13],0
same,3) Timing-sequence response and specificity C4,[3]; [13],0.000
same,Total single peptide,[3]; [13],7.2
